Measurements: article PMC9855432, “Novel Set of Diarylmethanes to Target Colorectal Cancer: Synthesis, In Vitro and In Silico Studies” (Biomolecules, 2022)

Key:
human CRC HT-29 cells [1] = experiment: MTT cell viability / IC50 on HT-29 cells; format: cell-based; conditions: for IC50: MTT assay, 1 to 50 µM, mean ± SEM of at least three experiments; for viability at 50 µM: HT-29, MTT screening
Procedure: (§1) Cells were grown in DMEM medium for HT-29 cells and RPMI 1640 medium for HCT116 cells, supplemented with 10% FBS, 1% L-glutamine and 100 U/mL penicillin and 100 μg/mL streptomycin. Cultures were maintained in a humidified atmosphere containing 5% CO2 at 37 °C. Stock solutions of each compound were used at 10^−2 M in DMSO and then diluted in culture medium to obtain the appropriate final concentrations. […] L929 cell line is a non-cancer cell line derived from L-strain (L cells) and has been grown in the Peptinov laboratory for years. L929 cells are murine adherent fibroblasts from subcutaneous connective tissue (areolar and adipose tissues). Cells were grown in DMEM medium supplemented with 10% FBS, 1% L-glutamine and 100 U/mL penicillin and 100 µg/mL streptomycin and maintained in a humidified incubator at 37 °C, 5% CO2. When confluence is at 80%, cells are trypsinyzed for 3 min and diluted in fresh medium. Each batch of cells is kept for 15 passages before being discarded and a new batch thawed.
(§2) All compounds were tested on the metabolic activity of the cells using the MTT colorimetric assay. Briefly, cells were seeded in 96-well microplates at 8 × 10^3 cells/well for human CRC HT-29 cells and 5 × 10^3 cells/well for human CRC HCT116 cells and grown for 24 h in appropriate culture medium prior to exposure or not to compounds (6–27) with concentration ranges from 1 to 50 µM. After 48 h of treatment, MTT (5 g/L in Phosphate-buffered saline (PBS)) was added and incubated for another 3 h. The MTT was then removed from the wells and 100 µL/well of DMSO were added to dissolve formazan. The optical density was detected with a microplate reader (Thermoscientific, Multiskan FC) at 550 nm and cell viability was expressed as a percentage of each treatment condition compared to control cells. IC50 values were calculated for all compounds from the dose–response curve.

human CRC HCT116 cells [2] = experiment: MTT cell viability / IC50 on HCT116 cells; format: cell-based; conditions: for IC50: MTT assay, 1 to 50 µM, mean ± SEM of at least three experiments; for viability at 50 µM: HCT-116, MTT screening
Procedure: as §1, §2

human CRC HT-29 cells [3] = experiment: DNA fragmentation, Cell Death Detection ELISA, HT-29; format: cell-based; conditions: treated at IC50, n-fold compared to control
Procedure: (§3) Human CRC HT-29 and HCT116 cells were treated or not with the determined IC50 values of compounds (12a, 10a, 10b) for 24 and 48 h and then harvested with trypsin. Histone release from the nucleus during apoptosis was analyzed using the Cell Death Detection ELISA^PLUS as previously described. Cytosol extracts from 10^5 cells of each condition were obtained and DNA fragmentation was measured according to the manufacturer’s protocol. Results were reported as n-fold compared to control cells.

human CRC HCT116 cells [4] = experiment: DNA fragmentation, Cell Death Detection ELISA, HCT116; format: cell-based; conditions: treated at IC50, n-fold compared to control
Procedure: as §3

P-Akt = experiment: Western blot of P-Akt in HCT116 cells; format: cell-based, human; conditions: HCT116, treated at IC50, 6 and 12 h
Procedure: (§4) Human CRC HT-29 and HCT116 cells were treated or not with the determined IC50 values of compounds (12a, 10a, 10b) for indicated times (6, 12, 24 and 48h) and then harvested with trypsin. For total protein extraction, collected samples of each condition were washed with PBS. Then, the total cell pool was centrifuged at 200× g for 5 min at 4 °C and homogenized in RIPA lysis buffer (50 mM HEPES, pH 7.5, 150 mM NaCl, 1% sodium deoxycholate, 1% NP-40, 0.1% Sodium Dodecyl Sulfate (SDS), […] of aprotinin) containing protease inhibitors according to the manufacturer’s instructions as previously described. Proteins (60 µg) were separated on 12.5% SDS-PAGE gels and transferred to polyvinylidene difluoride (PVDF) membranes. Membranes were probed with respective human antibodies against caspase-3, cleaved caspase-3, PARP and Akt, ERK, p38 MAP Kinases and its phosphorylated forms according to the manufacturer’s instructions. After incubation with appropriate secondary antibodies, blots were developed using the «Immobilon Western » substrate following the manufacturer’s protocol and G:BOX system (Syngene, Ozyme). […]
(§5) P-Akt, Akt, P-ERK, ERK, P-p38, p-38 sourced from human CRC HCT116 cells line were investigated. […] Total lysates were collected and expression of Akt, ERK and p38 MAPK proteins and their phosphorylated forms were determined by Western blot analysis.

P-ERK = experiment: Western blot of P-ERK in HCT116 cells; format: cell-based, human; conditions: HCT116, treated at IC50, 6 and 12 h
Procedure: as §4, §5

P-p38 = experiment: Western blot of P-p38 in HCT116 cells; format: cell-based, human; conditions: HCT116, treated at IC50, 6 and 12 h
Procedure: as §4, §5

PARP [5] = experiment: Western blot of cleaved PARP in HT-29 cells; format: cell-based, human
Procedure: (§6) Human CRC HT-29 and HCT116 cells were treated or not with the determined IC50 values of compounds (12a, 10a, 10b) for indicated times (6, 12, 24 and 48h) and then harvested with trypsin. For total protein extraction, collected samples of each condition were washed with PBS. Then, the total cell pool was centrifuged at 200× g for 5 min at 4 °C and homogenized in RIPA lysis buffer (50 mM HEPES, pH 7.5, 150 mM NaCl, 1% sodium deoxycholate, 1% NP-40, 0.1% Sodium Dodecyl Sulfate (SDS), […] of aprotinin) containing protease inhibitors according to the manufacturer’s instructions as previously described. Proteins (60 µg) were separated on 12.5% SDS-PAGE gels and transferred to polyvinylidene difluoride (PVDF) membranes. Membranes were probed with respective human antibodies against caspase-3, cleaved caspase-3, PARP and Akt, ERK, p38 MAP Kinases and its phosphorylated forms according to the manufacturer’s instructions. After incubation with appropriate secondary antibodies, blots were developed using the «Immobilon Western » substrate following the manufacturer’s protocol and G:BOX system (Syngene, Ozyme). Membranes were then reblotted with human anti-β-actin used as a loading control.
Cells were treated or not for 24 and 48 h, with IC50 values of compounds 10a, 10b and 12a, for human CRC HT-29 cells and compounds 10a and 12a for human CRC HCT116 cells. Total lysates were collected, and expression of apoptosis-related proteins was determined by Western blot analysis.

caspase-3 [6] = experiment: Western blot of cleaved caspase-3 in HT-29 cells; format: cell-based, human; conditions: HT-29, treated at IC50, within 48 h
Procedure: as §6
(§7) Cells were treated or not for 24 and 48 h, with IC50 values of compounds 10a, 10b and 12a, for human CRC HT-29 cells and compounds 10a and 12a for human CRC HCT116 cells. […]

caspase-3 [7] = experiment: Western blot of cleaved caspase-3 in HCT116 cells; format: cell-based, human; conditions: HCT116, treated at IC50, 24 h (enhanced after 48 h)
Procedure: as §6, §7

PARP [8] = experiment: Western blot of cleaved PARP in HCT116 cells; format: cell-based, human; conditions: HCT116, treated at IC50, 24 and 48 h
Procedure: as §6, §7

| IC50 (human CRC HT-29 cells [1]; Homo sapiens, HT-29, 48 h) | IC50 (human CRC HT-29 cells [1]; 48 h) | IC50 (human CRC HCT116 cells [2]; Homo sapiens, HCT-116, 48 h) | IC50 (human CRC HCT116 cells [2]; 48 h) | Compound | viability at 50 µM (human CRC HT-29 cells [1]; Homo sapiens, 48 h) | viability at 50 µM (human CRC HCT116 cells [2]; Homo sapiens, 48 h) | HT-29 DNA Fragmentation (Fold) (human CRC HT-29 cells [3]; 24 h) | HT-29 DNA Fragmentation (Fold) (human CRC HT-29 cells [3]; 48 h) | HCT116 DNA Fragmentation (Fold) (human CRC HCT116 cells [4]; 24 h) | HCT116 DNA Fragmentation (Fold) (human CRC HCT116 cells [4]; 48 h) | P-Akt expression (P-Akt) | ERK phosphorylation (P-ERK) | p38 activation (P-p38) | cleaved PARP expression (PARP [5]; HT-29, treated at IC50, 24 h) | cleaved PARP expression (PARP [5]; HT-29, treated at IC50, 48 h) | cleaved caspase-3 expression (caspase-3 [6]) | cleaved caspase-3 expression (caspase-3 [7]) | cleaved PARP expression (PARP [8]) |
| --- | --- | --- | --- | --- | --- | --- | --- | --- | --- | --- | --- | --- | --- | --- | --- | --- | --- | --- |
| < 30 µM | 25.7 ± 1.21 µM | < 35 µM | 33.6 ± 0.71 µM | COc1ccc(C(=Cc2ccc(C(C)(C)C)cc2)c2ccccn2)cc1 [Compound 10a, 2-(2-(4-(tert-butyl)phenyl)-1-(4-methoxyphenyl)vinyl)pyridine] | < 50% | < 50% | 1.12 Fold | 0.83 Fold | 0.83 Fold | 1.89 Fold | inhibition is also observed | drastically decreased | no p38 activation was observed | never been expressed | never been expressed |  |  |  |
|  | 23 ± 1.27 µM | < 35 µM | 31.4 ± 1.74 µM | COc1ccc(C(=Cc2ccc(C(F)(F)F)cc2)c2ccccn2)cc1 [Compound 12a, 2-(1-(4-methoxyphenyl)-2-(4-(trifluoromethyl)phenyl)vinyl)pyridine] | < 50% | < 50% | 2.90 Fold | 3.25 Fold | 1.46 Fold | 6.97 Fold | downregulated | drastically decreased | no p38 activation was observed | slightly enhanced | overexpressed | high expression of the cleaved form of caspase-3 | cleavage of caspase-3 | significant increase of cleaved PARP |
